The record followed here is US8492537B2, “Nucleosides for suppressing or reducing the development of resistance in cytostatic therapy” (RESprotect GmbH, priority 2006, dated 2013).

For the molecule `CC(C)[C@H](NC(=O)OC(C)(C)C)C(=O)OC[C@H]1O[C@@H](n2cc(/C=C/Br)c(=O)[nH]c2=O)C[C@@H]1Cl` [1.2.2.5, 5′-O—(N-t-butyloxycarbonyl-L-valinoyl)-3′-chloro-2′,3′-dideoxy-5-(E)-bromovinyluridine], the melting point (commonly the temperature of the solid-liquid transition) was 75 to 76 °C.

For `CC(C)[C@H](NC(=O)OC(C)(C)C)C(=O)N[C@H](C(=O)OC[C@H]1O[C@@H](n2cc(/C=C/Br)c(=O)[nH]c2=O)C[C@@H]1Cl)C(C)C` [1.2.2.7, 5′-O—(N-t-butyloxycarbonyl-L-valyl-L-valinoyl)-3′-chloro-2′,3′-dideoxy-5-(E)-bromovinyluridine], the melting point fell in the range of 102 to 103 °C.

`CC(C)[C@H](NC(=O)OC(C)(C)C)C(=O)N[C@H](C(=O)OC[C@H]1O[C@@H](n2cc(/C=C/Br)c(=O)[nH]c2=O)C[C@@H]1N=[N+]=[N-])C(C)C` [1.2.2.9, 3′-azido-5′-O—(N-t-butyloxycarbonyl-L-valyl-L-valinoyl)-2′,3′-dideoxy-5-(E)-bromovinyluridine]: the melting point is 95 to 97 °C.

Molecule `CC(=O)N[C@H]1C[C@H](n2cc(/C=C/Br)c(=O)[nH]c2=O)O[C@@H]1CBr` [1.4.2, 3′-acetamido-5′-bromo-2′,3′,5′-trideoxy-5-(E)-bromovinyluridine] displayed a melting point of 178 to 180 °C.

`O=c1[nH]c(=O)n([C@H]2C[C@H](O)[C@@H](CF)O2)cc1/C=C/Br` [2.1.1, 2′,5′-dideoxy-5′-fluoro-5-(E)-bromovinyluridine] gave a melting point of 208 °C.

In turn, `CO[C@H]1C[C@H](n2cc(/C=C/Br)c(=O)[nH]c2=O)O[C@@H]1CCl` [2.1.2, 3′-O-methyl-5′-chloro-2′,5′-dideoxy-5-(E)-bromovinyluridine] registered a melting point of 145 °C.

With `CO[C@H]1C[C@H](n2cc(/C=C/Br)c(=O)n(C)c2=O)O[C@@H]1CF` [2.1.3, 3′-O-methyl-5′-fluoro-2′,5′-dideoxy-3-methyl-5-(E)-bromovinyluridine], the melting point amounted to 95 °C.

Molecule `CO[C@H]1C[C@H](n2cc(/C=C/Br)c(=O)[nH]c2=O)O[C@@H]1CF` [2.1.4, 3′-O-methyl-5′-fluoro-2′,5′-dideoxy-5-(E)-bromovinyluridine] yielded a melting point of 177 °C.

Consider `CC(=O)O[C@H]1C[C@H](n2cc(/C=C/Br)c(=O)[nH]c2=O)O[C@@H]1C(O)F` (stereo partly shown) [2.2.1, 3′-O-acetyl-5′-fluoro-2′-deoxy-5-(E)-bromovinyluridine], for which the melting point came out at 81 °C.

Molecule `CCCCOC(=O)N[C@H](C(=O)O[C@H]1C[C@H](n2cc(/C=C/Br)c(=O)[nH]c2=O)O[C@@H]1CCl)C(C)C` [2.2.2.5, 3′-O—(N-4-butyloxycarbonyl-L-valinoyl)-5′-chloro-2′,5′-dideoxy-5-(E)-bromovinyluridine] gave a melting point of 87 to 88 °C.

Molecule `CC(C)[C@H](NC(=O)OC(C)(C)C)C(=O)N[C@H](C(=O)O[C@H]1C[C@H](n2cc(/C=C/Br)c(=O)[nH]c2=O)O[C@@H]1CCl)C(C)C` [2.2.2.7, 3′-O—(N-t-butyloxycarbonyl-L-valyl-L-valinoyl)-5′-chloro-2′,5′-dideoxy-5-(E)-bromovinyluridine] gave a melting point of 114 to 116 °C.

The molecule `CC(C)[C@H](NC(=O)OC(C)(C)C)C(=O)N[C@H](C(=O)O[C@H]1C[C@H](n2cc(/C=C/Br)c(=O)[nH]c2=O)O[C@@H]1CN=[N+]=[N-])C(C)C` [2.2.2.9, 5′-azido-3′-O—(N-t-butyloxycarbonyl-L-valyl-L-valinoyl)-2′,5′-dideoxy-5-(E)-bromovinyluridine] registered a melting point of 133 to 135 °C.

`O=c1[nH]c(=O)n([C@@H]2O[C@H](CBr)[C@@H](O)[C@H]2O)cc1/C=C/Br` [2.3, 5′-bromo-5′-deoxy-5-(E)-bromovinyluridine]: the melting point worked out at 201 °C.

Molecule `O=c1[nH]c(=O)n([C@H]2C[C@H](F)[C@@H](CF)O2)cc1/C=C/Br` [3.1, 3′,5′-difluoro-2′,3′,5′-trideoxy-5-(E)-bromovinyluridine] registered a melting point of 177 to 180 °C.

With `O=c1[nH]c(=O)n([C@H]2C[C@H](F)[C@@H](CCl)O2)cc1/C=C/Br` [3.2, 3′-fluoro-5′-chloro-2′,3′,5′-trideoxy-5-(E)-bromovinyluridine], the melting point amounted to 203 °C.

As for `O=c1[nH]c(=O)n([C@H]2C[C@H](Cl)[C@@H](CCl)O2)cc1/C=C/Br` [3.3, 3′,5′-dichloro-2′,3′,5′-trideoxy-5-(E)-bromovinyluridine], the melting point worked out at 184 °C.

In the case of `O=c1[nH]c(=O)n([C@H]2C[C@H](Cl)[C@@H](CBr)O2)cc1/C=C/Br` [3.5, 3′-chloro-5′-bromo-2′,3′,5′-trideoxy-5-(E)-bromovinyluridine], the melting point is 149 °C.

In the case of `[N-]=[N+]=NC[C@H]1O[C@@H](n2cc(/C=C/Br)c(=O)[nH]c2=O)C[C@@H]1Cl` [3.5.3, 5′-azido-3′-chloro-2′,3′,5′-trideoxy-5-(E)-bromovinyluridine], the melting point was 58 to 60 °C.

On to `[N-]=[N+]=N[C@H]1C[C@H](n2cc(/C=C/Br)c(=O)[nH]c2=O)O[C@@H]1CCl` [3.5.4, 3′-azido-5′-chloro-2′,3′,5′-trideoxy-5-(E)-bromovinyluridine], for which the melting point lay within 124 to 125 °C.

Consider `O=c1[nH]c(=O)n([C@H]2C[C@H](Br)[C@@H](CBr)O2)cc1/C=C/Br` [3.6, 3′,5′-dibromo-2′,3′,5′-trideoxy-5-(E)-bromovinyluridine], for which the melting point came to 153 °C.

For `O=c1[nH]c(=O)n([C@H]2C=C[C@@H](CO)O2)cc1/C=C/Br` [4.1, 2′,3′-didehydro-2′,3′-dideoxy-5-(E)-bromovinyluridine], the melting point is > 250 °C (dec.).

For the molecule `O=c1[nH]c(=O)n([C@H]2C=C[C@@H](CBr)O2)cc1/C=C/Br` [4.2, 2′,3′-didehydro-2′,3′,5′-trideoxy-5′-bromo-5-(E)-bromovinyluridine], the melting point is above 150 °C.

In turn, `O=c1[nH]c(=O)n([C@@H]2O[C@H](CO)[C@@H](O)[C@H]2F)cc1/C=C/Br` [5.1, 2′-fluoro-2′-deoxy-5-(E)-bromovinyluridine] yielded a melting point of 182 °C.

On to `O=c1[nH]c(=O)n([C@@H]2O[C@H](CBr)[C@@H](O)[C@H]2F)cc1/C=C/Br` [5.2, 2′-fluoro-5′-bromo-2′,5′-dideoxy-5-(E)-bromovinyluridine], for which the melting point is 223 °C.

As for `C[C@H]1O[C@@H](n2cc(/C=C/Br)c(=O)[nH]c2=O)C[C@@H]1O` [8.1, 2′,5′-dideoxy-5-(E)-bromovinyluridine], the melting point was 174 °C (dec.).

`C[C@H]1O[C@@H](n2cc(/C=C/Br)c(=O)[nH]c2=O)C[C@@H]1Cl` [8.2, 3′-chloro-2′,3′,5′-trideoxy-5-(E)-bromovinyluridine] came in with a melting point of 134 °C.

Molecule `CC(=O)O[C@H]1C[C@H](n2cc(/C=C/Br)c(=O)[nH]c2=O)O[C@@H]1CC#N` [10.3, 3′-O-acetyl-5′-cyano-2′,5′-dideoxy-5-(E)-bromovinyluridine] came in with a melting point of 96 °C.

As for `N#CC[C@H]1O[C@@H](n2cc(/C=C/Br)c(=O)[nH]c2=O)C[C@@H]1O` [compound 10, 5′-cyano-2′,5′-dideoxy-5-(E)-bromovinyluridine], the melting point was 177 °C (dec.).
